Measured values taken from patent US20230312605A1, “PYRROLO[2,1-F][1,2,4]TRIAZINES AND PREPARATION AND USES THEREOF” (BioSplice Therapeutics, Inc., priority 2021, published 2023).

Molecular target: recombinant DYRK1A kinase (Homo sapiens (Human), UniProt Q13627)
Assay: DYRK1A kinase assay (Ser/Thr 18 peptide Z-lyte FRET assay)
Type: biochemical
Conditions: recombinant DYRK1A 0.25 µg/mL, ATP 15 µM, Ser/Thr peptide 18 4 µM, one hour at room temperature; table head prints EC50, method says IC50
Summary of the method: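 Recombinant human DYRK1A (0.25 µg/mL) with 15 µM ATP and 4 µM Ser/Thr 18 peptide was incubated 1 h at room temperature with compound (11-point, 10 µM top), in duplicate. Z-lyte FRET read-out (coumarin/fluorescein emission ratio) was converted to percent phosphorylation; IC50 from non-linear regression.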

Row | SMILES | EC50 [nM]
1 | Cc1nc2ccc(-c3ccn4nc(N[C@H]5CC[C@@](C)(O)CC5)ncc34)nc2n1CC(C)(C)C#N [Compound 1869, 3-(5-(2-((cis-4-Hydroxy-4-methylcyclohexyl)amino)pyrrolo[2,1-f][1,2,4]triazin-5-yl)-2-methyl-3H-imidazo[4,5-b]pyridin-3-yl)-2,2-dimethylpropanenitrile] | 16
2 | C[C@]1(O)CC[C@@H](Nc2ncc3c(-c4ccc5ncccc5c4)ccn3n2)CC1 [Compound 1323, (1s,4s)-1-Methyl-4-((5-(quinolin-6-yl)pyrrolo[2,1-f][1,2,4]triazin-2-yl)amino)cyclohexan-1-ol] | 7
3 | Cc1nc2ccc(-c3ccn4nc(NC5CCC(F)(F)CC5)ncc34)nc2n1CC(C)(C)O [Compound 1870, 1-(5-(2-((4,4-Difluorocyclohexyl)amino)pyrrolo[2,1-f][1,2,4]triazin-5-yl)-2-methyl-3H-imidazo[4,5-b]pyridin-3-yl)-2-methylpropan-2-ol] | 78
4 | Cc1nc2ccc(-c3ccn4nc(N[C@H]5CN(C)C[C@H]5F)ncc34)nc2n1CC(F)F [Compound 1903, 5-(3-(2,2-Difluoroethyl)-2-methyl-3H-imidazo[4,5-b]pyridin-5-yl)-N-((3S,4R)-4-fluoro-1-methylpyrrolidin-3-yl)pyrrolo[2,1-f][1,2,4]triazin-2-amine] | 12
5 | Cc1nc2ccc(-c3ccn4nc(NC5CCN(C(=O)C(C)C)CC5)ncc34)nc2n1CC(F)F [Compound 1859, 1-(4-((5-(3-(2,2-Difluoroethyl)-2-methyl-3H-imidazo[4,5-b]pyridin-5-yl)pyrrolo[2,1-f][1,2,4]triazin-2-yl)amino)piperidin-1-yl)-2-methylpropan-1-one] | 8
6 | FC(F)(F)CCNc1ncc2c(-c3cnc4nccn4c3)ccn2n1 [Compound 220, 5-(Imidazo[1,2-a]pyrimidin-6-yl)-N-(3,3,3-trifluoropropyl)pyrrolo[2,1-f] [1,2,4]triazin-2-amine] | 14
7 | CC(F)(F)CNc1ncc2c(-c3ccc4nccn4c3)ccn2n1 [Compound 4, N-(2,2-Difluoropropyl)-5-(imidazo [1,2-a]pyridin-6-yl)pyrrolo[2,1-f][1,2,4] triazin-2-amine] | 73
8 | CC(C)(F)CNc1ncc2c(-c3cnc4ncc(Cl)n4c3)ccn2n1 [Compound 287, 5-(3-Chloroimidazo[1,2-a]pyrimidin-6-yl)-N-(2-fluoro-2-methylpropyl) pyrrolo[2,1-f] [1,2,4]triazin-2-amine] | 170
9 | Cc1nc2nc(-c3ccn4nc(N[C@H]5CC[C@@H](OC(F)(F)F)CC5)ncc34)cnc2n1CC(F)F [Compound 1971, 5-(1-(2,2-Difluoroethyl)-2-methyl-1H-imidazo[4,5-b]pyrazin-5-yl)-N-(cis-4-(trifluoromethoxy)cyclohexyl)pyrrolo[2,1-f][1,2,4]triazin-2-amine] | 379
10 | COc1ncnc2ccc(-c3ccn4nc(NCC(C)(C)F)ncc34)cc12 [Compound 1423, N-(2-Fluoro-2-methylpropyl)-5-(4-methoxyquinazolin-6-yl)pyrrolo[2,1-f] [1,2,4]triazin-2-amine] | 149
11 | Cc1cnc2ncc(-c3ccn4nc(NC5CCC(F)(F)CC5)ncc34)cn12 [Compound 398, N-(4,4-Difluorocyclohexyl)-5-(3-methylimidazo[1,2-a]pyrimidin-6-yl) pyrrolo[2,1-f] [1,2,4]triazin-2-amine] | 12
12 | CC1(CNc2ncc3c(-c4ccc5nccn5c4)ccn3n2)CC1 [Compound 12, 5-(Imidazo[1,2-a]pyridin-6-yl)-N-((1-methylcyclopropyl)methyl)pyrrolo[2,1-f][1,2,4]triazin-2-amine] | 45
13 | CC(C)(F)CNc1ncc2c(-c3ccc4nccn4n3)ccn2n1 [Compound 145, N-(2-Fluoro-2-methylpropyl)-5-(imidazo [1,2-b]pyridazin-6-yl)pyrrolo[2,1-f] [1,2,4]triazin-2-amine] | 45

The next molecules have a lower EC50 than those just listed; values first:

Row | EC50 [nM] | SMILES
14 | 3 | COCC(=O)N[C@]1(C)C[C@@H](Nc2ncc3c(-c4ccc5nccnc5c4)ccn3n2)C1 [Compound 1985, 2-Methoxy-N-(trans-1-methyl-3-((5-(quinoxalin-6-yl)pyrrolo[2,1-f][1,2,4]triazin-2-yl)amino)cyclobutyl)acetamide]
15 | 6 | Cc1nc2ccc(-c3ccn4nc(NC[C@H](C)O)ncc34)nc2n1CC(F)F [Compound 1832, (S)-1-((5-(3-(2,2-Difluoroethyl)-2-methyl-3H-imidazo[4,5-b]pyridin-5-yl)pyrrolo [2,1-f] [1,2,4]triazin-2-yl)amino)propan-2-ol]
16 | 4 | Cc1nc2ccc(-c3ccn4nc(N[C@H]5CC[C@@H](C(=O)N(C)C)CC5)ncc34)nc2n1CC(F)F [Compound 1845, cis-4-((5-(3-(2,2-Difluoroethyl)-2-methyl-3H-imidazo[4,5-b]pyridin-5-yl)pyrrolo[2,1-f][1,2,4]triazin-2-yl)amino)-N,N-dimethylcyclohexane-1-carboxamide]
17 | 5 | Cc1nc2ccc(-c3ccn4nc(N[C@H]5C[C@H](N6CCOCC6)C5)ncc34)nc2n1CC(F)F [Compound 1893, 5-(3-(2,2-Difluoroethyl)-2-methyl-3H-imidazo[4,5-b]pyridin-5-yl)-N-(trans-3-morpholinocyclobutyl)pyrrolo[2,1-f][1,2,4]triazin-2-amine]
18 | 3 | Cc1nc2ccc(-c3ccn4nc(N[C@H]5CC[C@@H](C(=O)N6CCC6)CC5)ncc34)nc2n1CC(F)F [Compound 1896, azetidin-1-yl(cis-4-((5-(3-(2,2-difluoroethyl)-2-methyl-3H-imidazo[4,5-b]pyridin-5-yl)pyrrolo[2,1-f][1,2,4]triazin-2-yl)amino)cyclohexyl)methanone]
19 | 6 | CO[C@H]1C[C@@H](Nc2ncc3c(-c4cnc5nccn5c4)ccn3n2)C1 [Compound 239, 5-(Imidazo[1,2-a]pyrimidin-6-yl)-N-(cis-3-methoxycyclobutyl)pyrrolo[2,1-f] [1,2,4]triazin-2-amine]
20 | 2 | Cc1nc2ncc(-c3ccn4nc(N[C@H]5CC[C@](C)(O)CC5)ncc34)cc2n1CC(F)F [Compound 1879, trans-4-((5-(1-(2,2-Difluoroethyl)-2-methyl-1H-imidazo[4,5-b]pyridin-6-yl)pyrrolo[2,1-f][1,2,4]triazin-2-yl)amino)-1-methylcyclohexan-1-ol]
21 | 3 | Cc1nc2ccc(-c3ccn4nc(N[C@H]5CC[C@](C)(O)CC5)ncc34)nc2n1CC(F)F [Compound 1840, trans-4-((5-(3-(2,2-Difluoroethyl)-2-methyl-3H-imidazo[4,5-b]pyridin-5-yl)pyrrolo[2,1-f][1,2,4]triazin-2-yl)amino)-1-methylcyclohexan-1-ol]
22 | 4 | Cc1nc2ncc(-c3ccn4nc(NC5CCC(F)(F)CC5)ncc34)cc2n1CC(F)F [Compound 682, N-(4,4-Difluorocyclohexyl)-5-(1-(2,2-difluoroethyl)-2-methyl-1H-imidazo[4,5-b]pyridin-6-yl)pyrrolo[2,1-f] [1,2,4]triazin-2-amine]
23 | 6 | Cc1nc2ccc(-c3ccn4nc(N[C@H]5CC[C@@H](CO)CC5)ncc34)nc2n1CC(F)F [Compound 1837, (cis-4-((5-(3-(2,2-Difluoroethyl)-2-methyl-3H-imidazo[4,5-b]pyridin-5-yl)pyrrolo[2,1-f][1,2,4]triazin-2-yl)amino)cyclohexyl)methanol]
24 | 4 | COCCO[C@H]1CC[C@@H](Nc2ncc3c(-c4ccc5nc(C)n(CC(F)F)c5n4)ccn3n2)CC1 [Compound 1117, 5-(3-(2,2-Difluoroethyl)-2-methyl-3H-imidazo[4,5-b]pyridin-5-yl)-N-(cis-4-(2-methoxyethoxy)cyclohexyl)pyrrolo[2,1-f][1,2,4]triazin-2-amine]
25 | 4 | Cc1nc2ncc(-c3ccn4nc(N[C@H]5C[C@@](C)(O)C5)ncc34)cc2n1CC(F)F [Compound 1813, cis-3-((5-(1-(2,2-Difluoroethyl)-2-methyl-1H-imidazo [4,5-b]pyridin-6-yl)pyrrolo[2,1-f] [1,2,4]triazin-2-yl)amino)-1-methylcyclobutan-1-ol]
26 | 1 | CC(=O)N[C@]1(C)C[C@@H](Nc2ncc3c(-c4ccc5nc(C)n(CC(F)F)c5c4)ccn3n2)C1 [Compound 1920, N-((1r,3r)-3-((5-(1-(2,2-Difluoroethyl)-2-methyl-1H-benzo[d]imidazol-6-yl)pyrrolo[2,1-f] [1,2,4]triazin-2-yl)amino)-1-methylcyclobutyl)acetamide]
27 | 3 | Cc1nc2ccc(-c3ccn4nc(NC5CCC6(CC5)COC6)ncc34)nc2n1CC(F)F [Compound 1961, 5-(3-(2,2-Difluoroethyl)-2-methyl-3H-imidazo[4,5-b]pyridin-5-yl)-N-(2-oxaspiro[3.5]nonan-7-yl)pyrrolo[2,1-f][1,2,4]triazin-2-amine]
28 | 2 | Cc1nc2ncc(-c3ccn4nc(N[C@H]5CC[C@@H](OC(F)F)CC5)ncc34)cc2n1CC(F)F [Compound 687]
29 | 2 | Cc1nc2ncc(-c3ccn4nc(N[C@H]5CC[C@@](C)(O)CC5)ncc34)nc2n1CC(F)F [Compound 1974, cis-4-((5-(1-(2,2-difluoroethyl)-2-methyl-1H-imidazo[4,5-b]pyrazin-6-yl)pyrrolo[2,1-f][1,2,4]triazin-2-yl)amino)-1-methylcyclohexan-1-ol]
30 | 3 | CCO[C@H]1CC[C@@H](Nc2ncc3c(-c4ccc5nc(C)n(CC(F)F)c5n4)ccn3n2)CC1 [Compound 1115, N-(cis-4-Ethoxycyclohexyl)-5-(3-(2,2-difluoroethyl)-2-methyl-3H-imidazo [4,5-b]pyridin-5-yl)pyrrolo[2,1-f][1,2,4]triazin-2-amine]
31 | 5 | Cc1nc2ccc(-c3ccn4nc(N[C@H]5C[C@@H](O)C5)ncc34)nc2n1CC(F)F [Compound 1720, cis-3-((5-(3-(2,2-Difluoroethyl)-2-methyl-3H-imidazo [4,5-b]pyridin-5-yl)pyrrolo[2,1-f] [1,2,4]triazin-2-yl)amino)cyclobutan-1-ol]
